Each block holds one compound with its values, some of them ahead of it. Activity calls are given as the source filed them. The calls are words filed in the database; no cut-off is given here.
Experiments:
[1] = target: Alpha amylase (Homo sapiens) (UniProt P0DUB6); test: Binding affinity to alpha-amylase (unknown origin) assessed as increase in intensity of absorption peak at 285 nm by […]
[2] = target: Alpha amylase (Homo sapiens) (UniProt P0DUB6); test: Binding affinity to alpha-amylase (unknown origin) assessed as increase in intensity of absorption peak at 280 nm by […]
[3] = target: Alpha amylase (Homo sapiens) (UniProt P0DUB6); test: Binding affinity to alpha-amylase (unknown origin) assessed as gibb's free energy change ar a temperature of 310.15 K by fluorescence quenching analysis
[4] = target: Alpha amylase (Homo sapiens) (UniProt P0DUB6); test: Binding affinity to alpha-amylase (unknown origin) assessed as Stem-Volmer quenching constant at a temperature of 283.15 K by fluorescence quenching analysis
[5] = target: Alpha amylase (Homo sapiens) (UniProt P0DUB6); test: Binding affinity to alpha-amylase (unknown origin) assessed as equilibrium binding constant at a temperature of 310.15 K by fluorescence quenching analysis
[6] = target: Alpha amylase (Homo sapiens) (UniProt P0DUB6); test: Binding affinity to alpha-amylase (unknown origin) assessed as gibb's free energy change ar a temperature of 278.15 K by fluorescence quenching analysis
[7] = target: Alpha amylase (Homo sapiens) (UniProt P0DUB6); test: Binding affinity to alpha-amylase (unknown origin) assessed as quenching constant at a temperature of 288.15 K by fluorescence quenching analysis
[8] = target: Alpha amylase (Homo sapiens) (UniProt P0DUB6); test: Binding affinity to alpha-amylase (unknown origin) assessed as equilibrium binding constant at a temperature of 278.15 K by fluorescence quenching analysis
A549 [9] = test: Antiproliferative activity against human A549 cells assessed as inhibition of cell growth incubated for 48 hrs by MTT assay; type: functional, cell-based; conditions: A549, 48 h
[10] = target: Alpha amylase (Homo sapiens) (UniProt P0DUB6); test: Binding affinity to alpha-amylase (unknown origin) assessed as assessed as non-uniform change in fluorescence intensity of tryptophan residue by Synchronous fluorescence analysis
[11] = target: Alpha amylase (Homo sapiens) (UniProt P0DUB6); test: Binding affinity to alpha-amylase (unknown origin) assessed as change in entropy by fluorescence quenching analysis
[12] = target: Alpha amylase (Homo sapiens) (UniProt P0DUB6); test: Binding affinity to alpha-amylase (unknown origin) assessed as gibb's free energy change ar a temperature of 283.15 K by fluorescence quenching analysis
MDA-MB-231 = test: Antiproliferative activity against human MDA-MB-231 cells assessed as inhibition of cell growth incubated for 48 hrs by MTT assay; type: functional, cell-based; conditions: MDA-MB-231, 48 h
[13] = target: Alpha amylase (Homo sapiens) (UniProt P0DUB6); test: Binding affinity to alpha-amylase (unknown origin) assessed as Stem-Volmer quenching constant at a temperature of 310.15 K by fluorescence quenching analysis
[14] = target: Alpha amylase (Homo sapiens) (UniProt P0DUB6); test: Binding affinity to alpha-amylase (unknown origin) assessed as quenching constant at a temperature of 278.15 K by fluorescence quenching analysis
[15] = target: Alpha amylase (Homo sapiens) (UniProt P0DUB6); test: Binding affinity to alpha-amylase (unknown origin) assessed as gibb's free energy change ar a temperature of 288.15 K by fluorescence quenching analysis
[16] = target: Alpha amylase (Homo sapiens) (UniProt P0DUB6); test: Binding affinity to alpha-amylase (unknown origin) assessed as equilibrium binding constant at a temperature of 288.15 K by fluorescence quenching analysis
[17] = target: Alpha amylase (Homo sapiens) (UniProt P0DUB6); test: Binding affinity to alpha-amylase (unknown origin) assessed as Stem-Volmer quenching constant at a temperature of 278.15 K by fluorescence quenching analysis
HCT-116 = test: Antiproliferative activity against human HCT-116 cells assessed as inhibition of cell growth incubated for 48 hrs by MTT assay; type: functional, cell-based; conditions: HCT-116, 48 h
[18] = target: Alpha amylase (Homo sapiens) (UniProt P0DUB6); test: Binding affinity to alpha-amylase (unknown origin) assessed as quenching constant at a temperature of 310.15 K by fluorescence quenching analysis
[19] = target: Alpha amylase (Homo sapiens) (UniProt P0DUB6); test: Binding affinity to alpha-amylase (unknown origin) assessed as equilibrium binding constant at a temperature of 283.15 K by fluorescence quenching analysis
[20] = target: Alpha amylase (Homo sapiens) (UniProt P0DUB6); test: Binding affinity to alpha-amylase (unknown origin) assessed as change in enthalpy by fluorescence quenching analysis
[21] = target: Alpha amylase (Homo sapiens) (UniProt P0DUB6); test: Binding affinity to alpha-amylase (unknown origin) assessed as quenching constant at a temperature of 283.15 K by fluorescence quenching analysis
A549 [22] = test: Induction of ROS in human A549 cells at sub IC50 concentration incubated for 24 hrs by H2DCFDA dye based fluorescence assay (reference value: 33.28%); type: functional
[23] = target: Alpha amylase (Homo sapiens) (UniProt P0DUB6); test: Binding affinity to alpha-amylase (unknown origin) assessed as Stem-Volmer quenching constant at a temperature of 288.15 K by fluorescence quenching analysis
MCF-10A = test: Cytotoxicity against human MCF-10A assessed as reduction in cell viability upto 10 uM incubated for 48 hrs by MTT assay; type: toxicity, cell-based
Alpha amylase = target: T1, Alpha amylase (Homo sapiens, UniProt P0DUB6); test: Inhibition of alpha-amylase (unknown origin) using starch as substrate preincubated with substrate for 15 mins followed by compound addition and measured after 15 mins by UV-VIS spectrophotometric analysis
T1 sequence (P0DUB6 whole entry): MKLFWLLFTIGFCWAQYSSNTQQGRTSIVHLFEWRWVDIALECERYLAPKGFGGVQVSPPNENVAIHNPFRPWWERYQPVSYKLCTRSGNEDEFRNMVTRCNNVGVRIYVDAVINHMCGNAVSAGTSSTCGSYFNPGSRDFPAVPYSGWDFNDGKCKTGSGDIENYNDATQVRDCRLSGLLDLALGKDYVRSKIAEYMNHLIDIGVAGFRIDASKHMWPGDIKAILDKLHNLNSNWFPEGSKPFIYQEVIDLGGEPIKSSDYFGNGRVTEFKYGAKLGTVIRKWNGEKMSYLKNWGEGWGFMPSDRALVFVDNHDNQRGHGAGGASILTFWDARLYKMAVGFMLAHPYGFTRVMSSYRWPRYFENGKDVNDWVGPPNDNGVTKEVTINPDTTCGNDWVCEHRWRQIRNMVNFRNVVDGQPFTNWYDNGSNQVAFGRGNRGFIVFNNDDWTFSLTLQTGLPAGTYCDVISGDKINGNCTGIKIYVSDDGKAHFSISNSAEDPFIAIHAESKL

[24] = target: Alpha amylase (Homo sapiens) (UniProt P0DUB6); test: Binding affinity to alpha-amylase (unknown origin) assessed as increase in absorption intensity by measuring appearance of new peak at 380 nm at 0.001 M by […]
[25] = target: Alpha amylase (Homo sapiens) (UniProt P0DUB6); test: Binding affinity to alpha-amylase (unknown origin) assessed as decrease in fluorescence intensity of tyrosine residue by Synchronous fluorescence analysis
Pancreatic alpha-amylase = target: T2, Pancreatic alpha-amylase (Sus scrofa, UniProt P00690); test: Inhibition of porcine pancreatic alpha-amylase using starch as substrate incubated for 10 mins by absorbance based assay
T2 sequence (P00690 whole entry): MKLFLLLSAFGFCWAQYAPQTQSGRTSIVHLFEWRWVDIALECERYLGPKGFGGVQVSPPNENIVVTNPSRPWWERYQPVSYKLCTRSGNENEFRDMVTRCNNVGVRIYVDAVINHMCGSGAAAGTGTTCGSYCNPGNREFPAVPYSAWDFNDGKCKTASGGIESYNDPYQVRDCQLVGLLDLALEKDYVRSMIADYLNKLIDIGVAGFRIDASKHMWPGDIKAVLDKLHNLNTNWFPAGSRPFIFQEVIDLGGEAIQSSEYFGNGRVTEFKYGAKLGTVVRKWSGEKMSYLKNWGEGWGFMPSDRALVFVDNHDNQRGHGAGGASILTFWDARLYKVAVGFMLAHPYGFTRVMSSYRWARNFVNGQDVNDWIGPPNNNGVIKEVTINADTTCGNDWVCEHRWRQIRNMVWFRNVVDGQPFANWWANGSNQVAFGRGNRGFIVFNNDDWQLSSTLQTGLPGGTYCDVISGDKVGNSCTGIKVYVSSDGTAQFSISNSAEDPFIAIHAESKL

Activity [1]: Dose-Dependent Effect
Activity [2]: Dose-Dependent Effect
deltaG [3]: -0.507 kcal/mol
KSV [4]: 0.93 10^5L/mol/s
Kb [5]: 442000 L/mol
deltaG [6]: -7.71 kcal/mol
Kq [7]: 2.46 10^13L/mol/s
Kb [8]: 6.32 10^6L/mol
IC50 (A549 [9]): 7.44 µM
Activity [10]: Active
deltaS [11]: -847 J/mol/K
deltaG [12]: -6.7 kcal/mol
IC50 (MDA-MB-231): 11.4 µM
KSV [13]: 0.188 10^5L/mol/s
Kq [14]: 16.8 10^13L/mol/s
deltaG [15]: -5.69 kcal/mol
Kb [16]: 0.00254 10^6L/mol
KSV [17]: 1.6 10^5L/mol/s
IC50 (HCT-116): 8.33 µM
Kq [18]: 1.88 10^13L/mol/s
Kb [19]: 0.102 10^6L/mol
deltaH [20]: -6.4 kcal/mol
Kq [21]: 9.36 10^13L/mol/s
KSV [23]: 0.24 10^5L/mol/s
IC50 (Alpha amylase): 0.23 µM
Activity [24]: Active
Activity [25]: Active
Structure (SMILES): O=C(N/N=C/c1ccc(O)cc1)c1csc(Nc2ccc([N+](=O)[O-])cc2)n1
Activity (A549 [22]): 64.21%
Activity (MCF-10A): Non-Toxic

IC50 (Pancreatic alpha-amylase): 0.59 µM
Structure (SMILES): COc1ccc(CNC(=O)Nc2sc3c(c2C#N)CCCC3)c(OC)c1

— ChEMBL document CHEMBL5252673, “Development of thiazole-appended novel hydrazones as a new class of α-amylase inhibitors with anticancer assets: an in silico and in vitro approach” (RSC Med Chem, 2023)
